The record followed here is patent US10117890B2, “Methods and compositions for treating pain” (Academia Sinica, priority 2012, dated 2018).

For the assay, the system named is ASIC3-expressing muscle nociceptors. Put plainly: Whole-cell patch clamp of acid-induced current in ASIC3-expressing muscle nociceptors. The assay is classed as cell-based, mice. To be noted: T1-11 10 nM; n=9. As for the experimental part:
To retrograde-trace muscle-afferent DRG neurons, mice were injected with 4% Fluorogold (Fluorochrome, Denver, Colo.) into the GM of both legs for 5 to 7 days, then lumbar DRG neurons were dissected and removed from both sides and placed in a tube for digestion with 1 ml DMEM containing 0.125% type 1 collagenase for 90 min and 0.25% trypsin for 20 min at 37° C. The digested DRG neurons were washed with fetal calf serum (FCS)-free DMEM or DMEM containing 10% FCS during each treatment. Fully digested DRGs were triturated and plated on poly-L-lysine-coated cover slides. Cell cultures were maintained in a 5% CO2 incubator at 37° C.
Whole-cell patch-clamp recordings of muscle-afferent neurons involved use of Axopatch MultiClamp 700B (Axon Instruments). Neurons with membrane potential >−40 mV were discarded. […]
Voltage-clamp mode was used to examine the effect of SP on acid-induced currents in ASIC3-expressing DRG neurons. A total of 40 GM and 6 non-GM DRG neurons were recorded in voltage-clamp mode with Vm held at −70 mV. […] To validate whether the modulation of SP on acid-induced current was NK1-receptor specific, acid-induced current was first recorded in a bath containing 10 μM RP67580 for 2 min as a control response. […] Acid-induced current was recorded in a bath containing both SP and genistein (30 μM; Tocris), or both SP and daidzein (30 μM; Tocris) for 3 min. […]
(In general: Patch clamp records ionic current or voltage across a cell membrane.)

Molecules are shown by their SMILES. Entries after “also recorded” stand apart in the source; their conditions may differ.

`OC[C@H]1O[C@@H](n2cnc3c(NCc4ccc(O)cc4)ncnc32)[C@H](O)[C@@H]1O` [T1-11, N^6-(4-hydroxybenzyl)adenosine]: the “acid-induced current in ASIC3-expressing muscle nociceptors” value was “is enough to inhibit acid-induced current; also recorded: inhibited acid-induced current in all ASIC3-expressing muscle nociceptors”.
